# Measurements reported in patent US20260248789A1, “CONTROLLED RELEASE PDE10A FORMULATIONS” (Merck Sharp & Dohme LLC, priority 2023, published 2026).
# Columns and labels:
# [1] = Study 2: multiple-dose titration study, PK of CR formulation; assay type: in vivo; details: human, plasma, oral, highest dose level in Study 2 (48 mg, CR formulation, schizophrenia)
# Experimental: (§1) Study 2 was designed similarly to Study 1; participants were administered CR Release formulations of Compound A/placebo as monotherapy in participants with schizophrenia (n=16) and healthy participants (n=16), or as adjunctive therapy (n=17) (schizophrenia participants only) and titrated from 4 mg to 24 mg (see Table 3 for illustration of PK at the 24 mg dose level as monotherapy in healthy adults). In Study 2 an additional panel of participants with schizophrenia was administered CR formulations of Compound A/placebo as monotherapy and titrated from 8 mg to 48 mg (n=26)(see Table 4 for illustration of PK at the 48 mg dose level).
# [2] = Study 2: tolerability of CR formulation; assay type: in vivo, human; details: Study 2, CR formulation titrated from 4 mg to 24 mg and from 8 mg to 48 mg
# Experimental: as §1
# [3] = Study 3: tolerability / adverse events of CR formulation; assay type: in vivo, human
# Experimental: In Study 3, one panel of participants [(n=8)—monotherapy in adult participants with schizophrenia] were titrated from 16 mg to 24 mg or placebo, while in another panel participants (n=18) received 24 mg/placebo without titration (Table 5) to determine if titration was required for tolerability.
# There were 2 events of transient dystonia following the first dose of 16 mg, but both events responded to treatment and participants continued dosing without recurrence. […] Other adverse events (i.e., depression, anxiety and stress) across all three studies were mostly mild or moderate in intensity and there was no clear dose-related increase in specific events (Table 6).
# [4] = Study 7: tolerability in healthy subjects 8-72 mg; assay type: in vivo, human; details: Study 7, healthy subjects (n=12) dosed 8 mg to 72 mg; up to and including doses of 48 mg
# From the text: Plasma exposures in this study were generally similar those observed in the other multiple dose studies reported here (data not shown).
# [5] = 24 mg (Day 1-7), Panel B, participants with schizophrenia, 14 in population
smiles,measurement,setting,value
"Cc1ccc([C@H]2C[C@@H]2COc2cc(NCc3nnc(C)s3)nc(C)n2)nc1 [Compound A, 2-methyl-N-((5-methyl-1,3,4-thiadiazol-2-yl)methyl)-6-(((1S,2S)-2-(5-methylpyridin-2-yl)cyclopropyl)methoxy)pyrimidin-4-amine]",Cmax,[1],~1800 nM
same,concentration at 24 h,[1]; read-out: C24,~1200 nM
same,dystonia,[2],no Compound A-related dystonia was observed
same,"Alanine aminotransferase increased, (%)",[3]; [5],(7.1) %
same,"Decreased appetite, (%)",[3]; [5],(7.1) %
same,"Hypertonia, (%)",[3]; [5],(7.1) %
same,"Investigations (non-serious related AE), (%)",[3]; [5],(7.1) %
same,"Metabolism and nutrition disorders, (%)",[3]; [5],(7.1) %
same,"Musculoskeletal and connective tissue disorders, (%)",[3]; [5],(7.1) %
same,"Musculoskeletal stiffness, (%)",[3]; [5],(7.1) %
same,"Nervous system disorders, (%)",[3]; [5],(21.4) %
same,"Participants with no Non-Serious Related Adverse Event, (%)",[3]; [5],(64.3) %
same,"Participants with one or more Non-Serious Related Adverse Event, (%)",[3]; [5],(35.7) %
same,"Somnolence, (%)",[3]; [5],(14.3) %
same,tolerability,"[3]; Study 3, dosing initiated at 16 mg or 24 mg with no titration",generally well tolerated
same,dystonia,"[3]; Study 3, dosing initiated at 24 mg without titration",No events of dystonia were reported
same,events of transient dystonia,"[3]; Study 3, following the first dose of 16 mg",2
same,dystonia,[4],no dystonia was reported
